Measurements reported in patent publication US7803757B2, “Peptides based on the sequence of human lactoferrin and their use” (PharmaSurgics in Sweden AB, priority 1998, dated 2010).
In brackets after ≈: the same amount, converted by molar mass. Peptide text beside a SMILES is read from it. * marks the point of attachment. Acm = CC(=O)NC*

Tests used:
Type in all cases: cell-based
[1] = system: C. glabrata; assay: fungicidal activity MMC99%, C. glabrata (Example 27); details: BHI diluted 1/100 (Table 23)
Procedure: (§1) In the examples, the minimal microbicidal concentrations (MMC) and minimal inhibitory concentrations (MIC) were determined as follows, unless otherwise specified in the examples. Bacterial or fungal strains were cultured in BHI medium over night at 37° C. A volume of the culture was transferred to a new tube with BHI and incubated for two more hours. Thereafter the cells were spun down and the pellet was suspended in BHI medium diluted 1/100 (1% BHI). The concentration of bacterial or fungal cells was spectrophotometrically determined at 650 nm. The microbial concentrations were also determined by viable counts. Peptides serially diluted in 1% BHI by twofold or tenfold steps were added in triplicate to the wells of a microtiterplate (200 μl per well). The bacterial or fungal cell solutions were added in 10 μl volumes to give a final concentration of approximately 1-5×10^5 cells per ml in the well. The microplate was incubated at 37° C. in a humid chamber for two hours. Thereafter 5 μl was taken from each well and added as a drop onto a blood agar plate and incubated over night at 37° C. The microplate was incubated for another 20 hours at 37° C. and thereafter analysed spectrophotometrically at 650 nm in a microplate reader (Emax, Molecular Devices, USA). The concentration of peptide causing a 99% reduction of the inoculum after 2 hours of incubation was defined as the MMC99%. The MIC value was defined as the concentration giving no increase in the absorbance value above the background level after 20 hours of incubation.
In this example the fungicidal activity of three of the peptides according to the invention was studied, and tested against three different fungi. The fungi were incubated in BHI medium diluted 1/100. The concentration of each peptide needed to kill 99% of the fungi (MMC99%) was determined.

[2] = system: E. coli O14; assay: bactericidal and growth inhibitory activity, E. coli O14 (Example 9)
Procedure: E. coli O14 was incubated as described above in the presence of the peptides during 2 hours. The bactericidal activity was measured in the same way as described above.
The inhibition of growth was measured spectrophotometrically after incubation during 20 hours.

[3] = system: E. coli O6K5; assay: bactericidal activity, incubation with E. coli O6K5 (Example 3, exp. II); details: Exp. II: 100% killing, E. coli O6K5, 1/100 BHI, 2 hours
Procedure: (§2) Human lactoferrin (hLF), peptide 3, and peptide 4, respectively, were incubated with two different strains of E. coli, E. coli O14 (experiment I) and O6K5 (experiment II), in diluted growth medium ( 1/100 BHI—brain heart infusion) for 2 hours. The peptides were also incubated with E. coli O14 in 0.05 mM KCl (pH 7) without any growth medium (experiment III). Different concentrations of the peptides were tested.
(§3) After the incubation, samples were taken for bacterial plating. Serial dilutions of five- and fourfold steps were used in experiments I and II, respectively, and of twofold steps in experiment III.
(§4) The concentrations of the different peptides required for killing 100% (experiments I and II) or 90% (experiment III) of the bacteria are given in table 2.

[4] = system: multiresistant S. aureus; assay: bactericidal activity, multiresistant S. aureus (Example 18); details: multiresistant S. aureus 5.0×10^5 per ml
Procedure: In this example the bactericidal activity of two of the peptides according to the invention was studied in a test with a multiresistant S. aureus. A bacterial solution with a concentration of 5.0×10^5 S. aureus bacterial per ml was used. The concentration of each peptide needed to kill 99% of the bacteria (MMC99%) was determined after 2 hours and after 24 hours of incubation at 37° C.

[5] = system: Candida krusei; assay: fungicidal activity against Candida krusei strains (Example 4); details: Exp. I
Procedure: In this example the fungicidal activity of the peptides according to the invention was tested and compared to the fungicidal activity of human lactoferrin. Different concentrations of hLF, peptide 3 and peptide 4 were incubated with different strains of Candida albicans and Candida krusei during 1-2 hours at 37° C. in 0.05 mM KCl at pH 7.0 at two different occasions—experiment I and II, respectively. After incubation samples were taken for plating on Saboroud plates.

[6] = system: C. albicans; assay: microbe, parasite or virus in culture
Procedure: as §1
Also in this example one of the peptides according to the invention—this time the peptide with SEQ. ID. NO. 4, was compared to a conventional fungicide, amphotericin. The antifungal activity against C. albicans was studied. Twofold serial dilutions with a starting concentration of 20 μg/ml were used. BHI diluted 1/100 was used as growth medium.

[7] = system: E. coli O14; assay: bactericidal activity, incubation with E. coli O14 (Example 3, exp. I and III)
Procedure: as §2, §3, §4

SMILES: CC[C@H](C)[C@H](NC(=O)[C@H](CSCNC(C)=O)NC(=O)[C@H](CO)NC(=O)[C@@H](NC(=O)[C@@H]1CCCN1C(=O)[C@@H]1CCCN1C(=O)CNC(=O)[C@H](CCCNC(=N)N)NC(=O)[C@@H](NC(=O)[C@H](CCCCN)NC(=O)[C@H](CCCNC(=N)N)NC(=O)[C@H](CCSC)NC(=O)[C@H](CC(N)=O)NC(=O)[C@H](CCCNC(=N)N)NC(=O)[C@H](CCC(N)=O)NC(=O)[C@H](Cc1c[nH]c2ccccc12)NC(=O)[C@H](CCC(N)=O)NC(=O)[C@H](Cc1ccccc1)NC(=O)[C@H](CSCNC(C)=O)NC(=O)[C@H](CCCCN)NC(=O)[C@@H](NC(C)=O)[C@@H](C)O)C(C)C)C(C)C)C(=O)N[C@@H](CCCCN)C(=O)N[C@@H](CCCNC(=N)N)C(N)=O [Peptide 4] (Ac-TKC(Acm)FQWQRNMRKVRGPPVSC(Acm)IKR-NH2)
- MMC99% [1]: >50
- Concentration of agent for 100% killing ([2]; E. coli O14, 2 hours): 12.5 µg/mL
- Concentration of agent for inhibition of growth ([2]; E. coli O14, spectrophotometrically after 20 hours): 3.1 µg/mL
- Concentration of agent for 100%/90% killing [3]: ≦7.8 μg/ml
- MMC99% ([4]; 2 hours at 37° C.): 5.0 µg/mL
- MMC99% ([4]; 24 hours at 37° C.): ≦0.32 μg/ml
- ratio hLF/pep. (concentration for 99% killing) ([5]; C. krusei CCUG 969): 10
- Concentration of agent for 99% killing ([5]; C. krusei CCUG 969, 0.05 mM KCl pH 7.0): 2.5 µg/mL
- ratio hLF/pep. (concentration for 99% killing) ([5]; C. krusei CCUG 35849): 10
- Concentration of agent for 99% killing ([5]; C. krusei CCUG 35849, 0.05 mM KCl pH 7.0): 1.25 µg/mL
- MIC [6]: 5.0 µg/mL (≈ 1.67 µM)
- MMC99% ([6]; C. albicans, BHI diluted 1/100, twofold dilutions from 20 μg/ml): 5.0 µg/mL
- Concentration of agent for 100%/90% killing ([7]; Exp. I: 100% killing, E. coli O14, 1/100 BHI, 2 hours): 4.4 µg/mL
- Concentration of agent for 100%/90% killing ([7]; Exp. III: 90% killing, E. coli O14, 0.05 mM KCl (pH 7) without growth medium): 3.2 µg/mL
